Assay results: patent US20210221848A1, “POLYMYXIN DERIVATIVES AND THEIR USE IN COMBINATION THERAPY TOGETHER WITH DIFFERENT ANTIBIOTICS” (priority 2014, published 2021)
Read-outs that look alike come from different tables or passages of the source.

Tests used:
[1] = test system: P. aeruginosa strains with elevated MICs to Polymyxin B; test: MIC against strains with elevated MICs to Polymyxin B; format: cell-based, Pseudomonas aeruginosa; settings: Table 6D; for MIC P. aeruginosa 066: strain 066, elevated MIC to Polymyxin B; for MIC P. aeruginosa 067: strain 067, elevated MIC to Polymyxin B; for MIC P. aeruginosa 065: strain 065, elevated MIC to Polymyxin B
Description: (§1) The inoculum was prepared by making a direct suspension of isolated colonies (selected from an 18-24 hour Mueller-Hinton agar plate) adjusted to the 0.5 McFarland standard. […] The assays were performed in duplicate. […] In cases where the duplicate values varied by less than 2-fold, the lower of the two values is reported. If a variation of greater than 2-fold was observed, the assay was considered non-valid. Several of the compounds were subjected to multiple tests, and where this is the case, the MIC reflects the modal value obtained.
(§2) The Further Synthesis Examples were tested against a range of Gram negative bacteria, and tested for HK-2 cell toxicity. All the worked examples, including the Synthesis and Further Synthesis Examples, were also tested against a range of Gram negative bacteria that are resistant to Polymyxin B (i.e. those strains where Polymyxin B has an elevated MIC value).

[2] = test system: E. coli strains with elevated MICs to Polymyxin B; test: MIC against strains with elevated MICs to Polymyxin B; format: cell-based, Escherichia coli; settings: Table 6D; for MIC E. coli 059: strain 059, elevated MIC to Polymyxin B; for MIC E. coli 060: strain 060, elevated MIC to Polymyxin B; for MIC E. coli 061: strain 061, elevated MIC to Polymyxin B; for MIC E. coli 058: strain 058, elevated MIC to Polymyxin B
Description: as §1, §2

[3] = test system: K. pneumoniae strains with elevated MICs to Polymyxin B; test: as above; format: cell-based, Klebsiella pneumoniae; settings: Table 6D; for MIC K. pneumoniae 062: strain 062, elevated MIC to Polymyxin B; for MIC K. pneumoniae 063: strain 063, elevated MIC to Polymyxin B; for MIC K. pneumoniae 064: strain 064, elevated MIC to Polymyxin B; for MIC K. pneumoniae 655: strain 655, elevated MIC to Polymyxin B
Description: as §1, §2

[4] = test system: A. baumanii strains with elevated MICs to Polymyxin B; test: MIC against strains with elevated MICs to Polymyxin B; format: cell-based, Acinetobacter baumannii; settings: Table 6D; for MIC A. baumannii 053: strain 053, elevated MIC to Polymyxin B; for MIC A. baumannii 056: strain 056, elevated MIC to Polymyxin B; for MIC A. baumannii 068: strain 068, elevated MIC to Polymyxin B; for MIC A. baumannii 070: strain 070, elevated MIC to Polymyxin B
Description: as §1, §2

[5] = absence of a second agent, Table 6B

Substance	MIC P. aeruginosa 066 [1]	MIC P. aeruginosa 067 [1]	MIC E. coli 059 [2]	MIC E. coli 060 [2]	MIC E. coli 061 [2]	MIC K. pneumoniae 062 [3]	MIC K. pneumoniae 063 [3]	MIC K. pneumoniae 064 [3]	MIC K. pneumoniae 655 [3]	MIC A. baumannii 053 [4]	MIC A. baumannii 056 [4]	MIC A. baumannii 068 [4]	MIC A. baumannii 070 [4]	MIC P. aeruginosa 065 [1]	MIC, K. pneumoniae ATCC 4352 (K. pneumoniae; sole activity, Table 6C)	MIC E. coli 058 [2]	MIC, A. baumannii ATCC BAA-747 (A. baumannii; sole activity, Table 6C)	MIC, A. baumannii NCTC 13424 (A. baumannii; sole activity, Table 6C)	MIC, P. aeruginosa ATCC 27853 (P. aeruginosa; sole activity, Table 6C)	MIC, P. aeruginosa CCUG 59347 (P. aeruginosa; sole activity, Table 6C)	other results
3-aminomethyl- undecanoyl polymyxin B nonapeptide [Example D32]	4 micrograms/mL	32 micrograms/mL	1 micrograms/mL	2 micrograms/mL	8 micrograms/mL	8 micrograms/mL	32 micrograms/mL	2 micrograms/mL	32 micrograms/mL	32 micrograms/mL	8 micrograms/mL	4 micrograms/mL	8 micrograms/mL								MIC, K. pneumoniae ATCC 4352 (K. pneumoniae; [5]): 1 micrograms/mL; MIC, A. baumannii ATCC BAA-747 (A. baumannii; [5]): 2 micrograms/mL; MIC, A. baumannii NCTC 13424 (A. baumannii; [5]): 1 micrograms/mL; MIC, P. aeruginosa ATCC 27853 (P. aeruginosa; [5]): 0.5 micrograms/mL; MIC, P. aeruginosa CCUG 59347 (P. aeruginosa; [5]): 1 micrograms/mL; MIC, E. coli ATCC 25922 (E. coli; [5]): 1 micrograms/mL; MIC, E. coli NCTC 13441 (E. coli; [5]): 1 micrograms/mL
3-aminomethyl- undecanoyl polymyxin B nonapeptide [Example D33]	4 micrograms/mL	32 micrograms/mL	2 micrograms/mL	2 micrograms/mL	8 micrograms/mL	2 micrograms/mL	16 micrograms/mL	2 micrograms/mL	32 micrograms/mL	32 micrograms/mL	16 micrograms/mL	4 micrograms/mL	4 micrograms/mL								MIC, K. pneumoniae ATCC 4352 (K. pneumoniae; [5]): 2 micrograms/mL; MIC, A. baumannii ATCC BAA-747 (A. baumannii; [5]): 1 micrograms/mL; MIC, A. baumannii NCTC 13424 (A. baumannii; [5]): 2 micrograms/mL; MIC, P. aeruginosa ATCC 27853 (P. aeruginosa; [5]): 0.5 micrograms/mL; MIC, P. aeruginosa CCUG 59347 (P. aeruginosa; [5]): 1 micrograms/mL; MIC, E. coli ATCC 25922 (E. coli; [5]): 1 micrograms/mL; MIC, E. coli NCTC 13441 (E. coli; [5]): 2 micrograms/mL
4-(isobutyl- piperidine)-3- carbonyl L-Thr-L- Dap-polymyxin B heptapeptide [Example D83]	2 micrograms/mL	32 micrograms/mL	8 micrograms/mL	2 micrograms/mL	8 micrograms/mL	32 micrograms/mL	16 micrograms/mL	2 micrograms/mL	16 micrograms/mL	>64 micrograms/mL	32 micrograms/mL	8 micrograms/mL	16 micrograms/mL	2 micrograms/mL	0.06 micrograms/mL	4 micrograms/mL	0.06 micrograms/mL	0.125 micrograms/mL	0.25 micrograms/mL	0.5 micrograms/mL	MIC, E. coli ATCC 25922 (E. coli; sole activity, Table 6C): 0.125 micrograms/mL; MIC, E. coli NCTC 13441 (E. coli; sole activity, Table 6C): 0.06 micrograms/mL
4-octylpiperidine-3- carbonyl polymyxin B nonapeptide [Example D35]	1 micrograms/mL	4 micrograms/mL	0.5 micrograms/mL	2 micrograms/mL	4 micrograms/mL	1 micrograms/mL	2 micrograms/mL	1 micrograms/mL	4 micrograms/mL	32 micrograms/mL	8 micrograms/mL	1 micrograms/mL	1 micrograms/mL	0.25 micrograms/mL		1 micrograms/mL					MIC, K. pneumoniae ATCC 4352 (K. pneumoniae; [5]): 2 micrograms/mL; MIC, K. pneumoniae ATCC BAA-2146 (K. pneumoniae; [5]): 2 micrograms/mL; MIC, A. baumannii ATCC BAA-747 (A. baumannii; [5]): 2 micrograms/mL; MIC, A. baumannii NCTC 13424 (A. baumannii; [5]): 1 micrograms/mL; MIC, P. aeruginosa ATCC 27853 (P. aeruginosa; [5]): 1 micrograms/mL; MIC, P. aeruginosa CCUG 59347 (P. aeruginosa; [5]): 1 micrograms/mL; MIC, E. coli ATCC 25922 (E. coli; [5]): 1 micrograms/mL; MIC, E. coli NCTC 13441 (E. coli; [5]): 1 micrograms/mL
5- (isobutoxy)piperi- dine-3-carbonyl Polymyxin B nonapeptide [Example D63]	32 micrograms/mL	>256 micrograms/mL			32 micrograms/mL	128 micrograms/mL		4 micrograms/mL			128 micrograms/mL			4 micrograms/mL	0.125 micrograms/mL	16 micrograms/mL	0.25 micrograms/mL	0.25 micrograms/mL	0.5 micrograms/mL	0.5 micrograms/mL	MIC, K. pneumoniae ATCC BAA-2146 (K. pneumoniae; sole activity, Table 6C): 0.125 micrograms/mL; MIC, E. coli ATCC 25922 (E. coli; sole activity, Table 6C): 0.06 micrograms/mL; MIC, E. coli NCTC 13441 (E. coli; sole activity, Table 6C): 0.125 micrograms/mL
5- isobutoxypiperidine- 3-carbonyl L- Thr-L-Dap- polymyxin B heptapeptide [Example D70]	16 micrograms/mL	>256 micrograms/mL	8 micrograms/mL	4 micrograms/mL	16 micrograms/mL	64 micrograms/mL	64 micrograms/mL	6 micrograms/mL	32 micrograms/mL	>256 micrograms/mL	16 micrograms/mL	8 micrograms/mL	32 micrograms/mL	4 micrograms/mL	0.06 micrograms/mL	4 micrograms/mL	0.06 micrograms/mL	0.125 micrograms/mL	0.25 micrograms/mL	0.5 micrograms/mL	MIC, E. coli ATCC 25922 (E. coli; sole activity, Table 6C): 0.125 micrograms/mL; MIC, E. coli NCTC 13441 (E. coli; sole activity, Table 6C): 0.125 micrograms/mL
5-(3- methylbutanamido) piperidine-3- carbonyl Polymyxin B nonapeptide [Example D64]	64 micrograms/mL	>256 micrograms/mL	128 micrograms/mL	64 micrograms/mL	64 micrograms/mL	>256 micrograms/mL	>256 micrograms/mL	128 micrograms/mL		>256 micrograms/mL	256 micrograms/mL	128 micrograms/mL	>256 micrograms/mL	64 micrograms/mL	0.25 micrograms/mL	64 micrograms/mL	2 micrograms/mL	2 micrograms/mL	1 micrograms/mL	1 micrograms/mL	MIC, K. pneumoniae ATCC BAA-2146 (K. pneumoniae; sole activity, Table 6C): 0.25 micrograms/mL; MIC, E. coli ATCC 25922 (E. coli; sole activity, Table 6C): 0.25 micrograms/mL; MIC, E. coli NCTC 13441 (E. coli; sole activity, Table 6C): 0.25 micrograms/mL
